{"source": "the supplement of paper PMC10733146", "assay_in_all_cases": "viability relative to DMSO control (fraction); higher = less drug effect (more viable cells)", "details_in_all_cases": "48 h", "key": {"[1]": {"test_system": "primary ALL patient cells (S088)", "in_short": "(§1)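 Viability was quantified by CellTiter-Glo luminescence and related to the median of 16 inner DMSO wells. Before that, primary mononuclear tumour cells, fresh or cryopreserved and Ficoll-isolated from blood or bone marrow or prepared from processed lymph node, were plated at 4 × 10^4 cells per well in 384-well plates containing pre-plated compounds at five concentrations, one well each. Plates were incubated in RPMI-1640 with penicillin/streptomycin, L-glutamine and human serum at 37 °C and 5% CO2 for 48 h.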"}, "[2]": {"test_system": "primary BL patient cells (S005)", "in_short": "as §1"}, "[3]": {"test_system": "primary AML patient cells (S012)", "in_short": "as §1"}, "[4]": {"test_system": "primary MCL patient cells (S053)", "in_short": "as §1"}, "[5]": {"test_system": "primary AML patient cells (S060)", "in_short": "as §1"}, "[6]": {"test_system": "primary B-PLL patient cells (S016)", "in_short": "as §1"}, "[7]": {"test_system": "primary AML patient cells (S072)", "in_short": "as §1"}, "[8]": {"test_system": "primary DLBCL patient cells (S082)", "in_short": "as §1"}, "[9]": {"test_system": "primary AML patient cells (S009)", "in_short": "as §1"}, "[10]": {"test_system": "primary AML patient cells (S056)", "in_short": "as §1"}, "[11]": {"test_system": "primary AML patient cells (S071)", "in_short": "as §1"}, "[12]": {"test_system": "primary FL patient cells (S087)", "in_short": "as §1"}, "[13]": {"test_system": "primary AML patient cells (S085)", "in_short": "as §1"}, "[14]": {"test_system": "primary MCL patient cells (S041)", "in_short": "as §1"}, "[15]": {"test_system": "primary CLL patient cells (S031)", "in_short": "as §1"}, "[16]": {"test_system": "primary CLL patient cells (S043)", "in_short": "as §1"}, "[17]": {"test_system": "primary AML patient cells (S079)", "in_short": "as §1"}, "[18]": {"test_system": "primary MCL patient cells (S063)", "in_short": "as §1"}, "[19]": {"test_system": "primary AML patient cells (S017)", "in_short": "as §1"}}}
{"smiles": "CN1CC[C@H](c2c(O)cc(O)c3c(=O)cc(-c4ccccc4Cl)oc23)[C@H](O)C1", "note": "[Flavopiridol]", "values": [{"measurement": "viability", "setting": "[1]; 0.0032 µM", "value": 0.955}, {"measurement": "viability", "setting": "[1]; 0.016 µM", "value": 0.916}, {"measurement": "viability", "setting": "[1]; 0.08 µM", "value": 1.08}, {"measurement": "viability", "setting": "[1]; 0.4 µM", "value": 0.0921}, {"measurement": "viability", "setting": "[1]; 2 µM", "value": 0.0295}, {"measurement": "viability", "setting": "[2]; 0.0032 µM", "value": 0.794}, {"measurement": "viability", "setting": "[2]; 0.016 µM", "value": 1.26}, {"measurement": "viability", "setting": "[2]; 0.08 µM", "value": 0.644}, {"measurement": "viability", "setting": "[2]; 0.4 µM", "value": 0.534}, {"measurement": "viability", "setting": "[2]; 2 µM", "value": 0.983}, {"measurement": "viability", "setting": "[3]; 0.0032 µM", "value": 0.979}, {"measurement": "viability", "setting": "[3]; 0.016 µM", "value": 0.904}, {"measurement": "viability", "setting": "[3]; 0.08 µM", "value": 0.869}, {"measurement": "viability", "setting": "[3]; 0.4 µM", "value": 0.151}, {"measurement": "viability", "setting": "[3]; 2 µM", "value": 0.0418}, {"measurement": "viability", "setting": "[4]; 0.0032 µM", "value": 1.02}, {"measurement": "viability", "setting": "[4]; 0.016 µM", "value": 0.938}, {"measurement": "viability", "setting": "[4]; 0.08 µM", "value": 0.951}, {"measurement": "viability", "setting": "[4]; 0.4 µM", "value": 0.469}, {"measurement": "viability", "setting": "[4]; 2 µM", "value": 0.627}, {"measurement": "viability", "setting": "[5]; 0.0032 µM", "value": 0.949}, {"measurement": "viability", "setting": "[5]; 0.016 µM", "value": 0.937}, {"measurement": "viability", "setting": "[5]; 0.08 µM", "value": 0.848}, {"measurement": "viability", "setting": "[5]; 0.4 µM", "value": 0.127}, {"measurement": "viability", "setting": "[5]; 2 µM", "value": 0.0228}, {"measurement": "viability", "setting": "[6]; 0.0032 µM", "value": 0.932}, {"measurement": "viability", "setting": "[6]; 0.016 µM", "value": 0.862}, {"measurement": "viability", "setting": "[6]; 0.08 µM", "value": 0.959}, {"measurement": "viability", "setting": "[6]; 0.4 µM", "value": 0.217}, {"measurement": "viability", "setting": "[6]; 2 µM", "value": 0.0227}, {"measurement": "viability", "setting": "[7]; 0.0032 µM", "value": 1.17}, {"measurement": "viability", "setting": "[7]; 0.016 µM", "value": 1.05}, {"measurement": "viability", "setting": "[7]; 0.08 µM", "value": 0.754}, {"measurement": "viability", "setting": "[7]; 0.4 µM", "value": 0.156}, {"measurement": "viability", "setting": "[7]; 2 µM", "value": 0.0607}, {"measurement": "viability", "setting": "[8]; 0.0032 µM", "value": 1.03}, {"measurement": "viability", "setting": "[8]; 0.016 µM", "value": 0.977}, {"measurement": "viability", "setting": "[8]; 0.08 µM", "value": 1.11}, {"measurement": "viability", "setting": "[8]; 0.4 µM", "value": 0.103}, {"measurement": "viability", "setting": "[8]; 2 µM", "value": 0.0254}, {"measurement": "viability", "setting": "[9]; 0.0032 µM", "value": 0.95}, {"measurement": "viability", "setting": "[9]; 0.016 µM", "value": 0.898}, {"measurement": "viability", "setting": "[9]; 0.08 µM", "value": 0.619}, {"measurement": "viability", "setting": "[9]; 0.4 µM", "value": 0.199}, {"measurement": "viability", "setting": "[9]; 2 µM", "value": 0.0899}, {"measurement": "viability", "setting": "[10]; 0.0032 µM", "value": 0.928}, {"measurement": "viability", "setting": "[10]; 0.016 µM", "value": 0.75}, {"measurement": "viability", "setting": "[10]; 0.08 µM", "value": 0.367}, {"measurement": "viability", "setting": "[10]; 0.4 µM", "value": 0.065}, {"measurement": "viability", "setting": "[10]; 2 µM", "value": 0.0807}, {"measurement": "viability", "setting": "[11]; 0.0032 µM", "value": 0.914}, {"measurement": "viability", "setting": "[11]; 0.016 µM", "value": 0.833}, {"measurement": "viability", "setting": "[11]; 0.08 µM", "value": 0.54}, {"measurement": "viability", "setting": "[11]; 0.4 µM", "value": 0.0926}, {"measurement": "viability", "setting": "[11]; 2 µM", "value": 0.0942}, {"measurement": "viability", "setting": "[12]; 0.0032 µM", "value": 0.967}, {"measurement": "viability", "setting": "[12]; 0.016 µM", "value": 0.91}, {"measurement": "viability", "setting": "[12]; 0.08 µM", "value": 1}, {"measurement": "viability", "setting": "[12]; 0.4 µM", "value": 0.644}, {"measurement": "viability", "setting": "[12]; 2 µM", "value": 0.638}, {"measurement": "viability", "setting": "[13]; 0.0032 µM", "value": 0.86}, {"measurement": "viability", "setting": "[13]; 0.016 µM", "value": 0.858}, {"measurement": "viability", "setting": "[13]; 0.08 µM", "value": 0.651}, {"measurement": "viability", "setting": "[13]; 0.4 µM", "value": 0.0968}, {"measurement": "viability", "setting": "[13]; 2 µM", "value": 0.0387}, {"measurement": "viability", "setting": "[14]; 0.0032 µM", "value": 1.01}, {"measurement": "viability", "setting": "[14]; 0.016 µM", "value": 0.914}, {"measurement": "viability", "setting": "[14]; 0.08 µM", "value": 0.892}, {"measurement": "viability", "setting": "[14]; 0.4 µM", "value": 0.0723}, {"measurement": "viability", "setting": "[14]; 2 µM", "value": 0.0378}, {"measurement": "viability", "setting": "[15]; 0.0032 µM", "value": 1.04}, {"measurement": "viability", "setting": "[15]; 0.016 µM", "value": 0.914}, {"measurement": "viability", "setting": "[15]; 0.08 µM", "value": 0.963}, {"measurement": "viability", "setting": "[15]; 0.4 µM", "value": 0.0407}, {"measurement": "viability", "setting": "[15]; 2 µM", "value": 0.0147}, {"measurement": "viability", "setting": "[16]; 0.0032 µM", "value": 0.933}, {"measurement": "viability", "setting": "[16]; 0.016 µM", "value": 1.02}, {"measurement": "viability", "setting": "[16]; 0.08 µM", "value": 0.912}, {"measurement": "viability", "setting": "[16]; 0.4 µM", "value": 0.265}, {"measurement": "viability", "setting": "[16]; 2 µM", "value": 0.0335}, {"measurement": "viability", "setting": "[17]; 0.0032 µM", "value": 1.01}, {"measurement": "viability", "setting": "[17]; 0.016 µM", "value": 0.979}, {"measurement": "viability", "setting": "[17]; 0.08 µM", "value": 0.878}, {"measurement": "viability", "setting": "[17]; 0.4 µM", "value": 0.112}, {"measurement": "viability", "setting": "[17]; 2 µM", "value": 0.0261}, {"measurement": "viability", "setting": "[18]; 0.0032 µM", "value": 0.987}, {"measurement": "viability", "setting": "[18]; 0.016 µM", "value": 0.935}, {"measurement": "viability", "setting": "[18]; 0.08 µM", "value": 0.887}, {"measurement": "viability", "setting": "[18]; 0.4 µM", "value": 0.269}, {"measurement": "viability", "setting": "[18]; 2 µM", "value": 0.0178}, {"measurement": "viability", "setting": "[19]; 0.0032 µM", "value": 1}, {"measurement": "viability", "setting": "[19]; 0.016 µM", "value": 0.986}, {"measurement": "viability", "setting": "[19]; 0.08 µM", "value": 0.96}, {"measurement": "viability", "setting": "[19]; 0.4 µM", "value": 0.18}, {"measurement": "viability", "setting": "[19]; 2 µM", "value": 0.0397}]}
